{"source": "patent US4789670A", "about": "“Method and compositions for suppression of atherogenesis utilizing cholesterol hydroperoxides” (priority 1987, dated 1988)", "key": {"Bovine brain calmodulin": {"molecular_target": "Bovine brain calmodulin (Bos taurus, UniProt P62157)", "experiment": "Calmodulin assayed by activation of calmodulin-dependent cyclic nucleotide phosphodiesterase", "format": "biochemical", "details": "122 μM", "description": "Bovine brain calmodulin was purified to homogeneity according to the method described by Sharma and Wang (1979), cited above, with the inclusion of phenyl-Sepharose affinity chromatography as described by Dedman and Kaetzel (1983) Methods Enzymol., 102:1-8. Calmodulin-deficient, calmodulin-dependent cyclic nucleotide phosphodiesterase from bovine brain was partially purified by the method described by Sharma et al. (1983) Methods Enzymol., 102:210-219, with the omission of the calmodulin-Sepharose affinity chromatography. Calmodulin was assayed by the activation of the bovine brain calmodulin-dependent cyclic, nucleotide phosphodiesterase as described by Leung et al. (1982) J. Biol. Chem., 259:2742-2747. Briefly, the phosphodiesterase reaction was coupled to the 5,'-nucleotidase reaction. The amount of phosphate released was measured by the malachite green method of Carter and Karl (1982) J. Biochem. Biophys. Methods, 7:7-13. One unit of calmodulin is defined as that amount giving 50% of the maximal activation of the phosphodiesterase."}, "[1]": {"tested_on": "rabbits fed an atherogenic diet", "details": "cited from earlier work"}, "[2]": {"tested_on": "New Zealand white rabbits", "experiment": "Rabbit feeding experiments: aortas stained with Sudan IV for atherosclerotic lesions", "format": "in vivo", "protocol": "(§1) For the first feeding experiment, eighteen young adult New Zealand white rabbits (2.7+/-0,3 kg) were divided into […]. The first group (3 animals) was killed immediately and tissue samples obtained for comparison with the experimental animals. The controls (3 rabbits) were fed 160 g/day Purina Pelleted Rabbit Chow (Ralston Purina Co., St. Louis, MO.); the other three groups (4 rabbits each) received the same diet to which was added 1.6 g recrystallized cholesterol, or 50 mg of the cholesterol hydroperoxide-enriched material, or both 1.6 g recrystallized cholesterol and 50 mg of cholesterol hydroperoxides. The sterols were added to the pelleted diet in ethyl ether and the ether was allowed to evaporate under a stream of nitrogen. The animals were fed this diet for 61 days, during which time one animal on the cholesterol diet died of unknown causes. The weight gained by the animals during the experiment, as percent of initial weight, was: controls, 38%; cholesterol, 33%; hydroperoxides, 34%; and cholesterol plus hydroperoxides, 18%. At the end of the feeding period the animals were killed and blood and tissue samples obtained for further investigation.\nA second feeding experiment was conducted in the same way as the first with the following changes. Twenty-six rabbits (2.8 +/-0.05 kg) were obtained; two were killed before the feeding experiment began and tissue samples obtained as before. The remaining animals were divided into 6 groups of 4. Four groups received the same diets as in the first experiment. The other two groups received 160/g day Purina Pelleted Rabbit Chow to which was added 50 mg/day of the material produced by reduction of the hydroperoxide-enriched material with NaI; or 1.6 g/day recrystallized cholesterol plus 50 mg/day of the reduced material. […]\nThe aortas were sectioned longitudinally and stained with Sudan IV (Holman et al., 1958Lat. Invest., 7:42-47). […] J. Biochem. and Physiol., 37:911-917 and free and esterified cholesterol concentrations in plasma, lipoproteins, and tissue were determined by the method of Sale (1984) Anal. Biochem., 142:347-350."}, "[3]": {"experiment": "Rabbit feeding experiments: blood plasma cholesterol and cholesterol esters", "format": "in vivo", "details": "+/- S.D.", "protocol": "as §1\nA second feeding experiment was conducted in the same way as the first with the following changes. Twenty-six rabbits (2.8 +/-0.05 kg) were obtained; two were killed before the feeding experiment began and tissue samples obtained as before. The remaining animals were divided into 6 groups of 4. Four groups received the same diets as in the first experiment. The other two groups received 160/g day Purina Pelleted Rabbit Chow to which was added 50 mg/day of the material produced by reduction of the hydroperoxide-enriched material with NaI; or 1.6 g/day recrystallized cholesterol plus 50 mg/day of the reduced material. The animals received all six diets for 56 days, during which time one control animal and one receiving the hydroperoxide preparation died during removal of blood samples. The weight gain, as percent of initial weight, was: controls, 45%; cholesterol, 31%; hydroperoxides, 29%; cholesterol plus hydroperoxides, 31%; reduced hydroperoxides 35%, and cholesterol plus reduced hydroperoxides, 30%.\n(§2) The aortas were sectioned longitudinally and stained with Sudan IV (Holman et al., 1958Lat. Invest., 7:42-47). Serum lipoproteins were separated as described by Havel et al. (1955) J. Clin. Invest., 34:1345-1353. Lipids were extracted by the method of Bligh and Dyer (1959) Can. J. Biochem. and Physiol., 37:911-917 and free and esterified cholesterol concentrations in plasma, lipoproteins, and tissue were determined by the method of Sale (1984) Anal. Biochem., 142:347-350."}, "[4]": {"experiment": "Rabbit feeding experiment: cholesterol and cholesterol esters in liver and heart", "format": "in vivo", "details": "first feeding experiment, +/- S.D.", "protocol": "as §1, §2"}}, "data": [{"smiles": "CC(C)CCC[C@@H](C)[C@H]1CC[C@H]2[C@@H]3C[C@@H]4O[C@@]45C[C@@H](O)CC[C@]5(C)[C@H]3CC[C@]12C", "note": "[Cholesterol-5α,6α-epoxide, cholesterol-5α,6α-epoxide]", "values": [{"measurement": "effect in the phosphodiesterase assay", "setting": "Bovine brain calmodulin", "result": "without effect"}]}, {"smiles": "CN(C)CCCN1c2ccccc2Sc2ccc(Cl)cc21", "note": "[chlorpromazine]", "values": [{"measurement": "development of atherosclerotic lesions", "setting": "[1]", "result": "reduced the development of such lesions"}, {"measurement": "effect on blood cholesterol", "setting": "[1]", "result": "without lowering of blood cholesterol"}]}, {"smiles": "CC(C)CCC[C@@H](C)[C@H]1CC[C@H]2[C@@H]3CCC4=CC(=O)CC[C@]4(C)[C@H]3CC[C@]12C", "note": "[4-cholesten-3-one]", "values": [{"measurement": "effect in the phosphodiesterase assay", "setting": "Bovine brain calmodulin", "result": "without effect"}]}, {"smiles": "CC(C)CCC[C@@H](C)[C@H]1CC[C@H]2[C@@H]3CC=C4C[C@@H](O)CC[C@]4(C)[C@H]3CC[C@]12C", "note": "[cholesterol]", "values": [{"measurement": "atherosclerotic lesions in aorta (Sudan IV)", "setting": "[2]; first feeding experiment, 61 days, added to chow: 1.6 g/day cholesterol and/or 50 mg/day hydroperoxide material", "result": "heavily infiltrated with fatty material"}, {"measurement": "atherosclerotic lesions in aorta (Sudan IV)", "setting": "[2]; first feeding experiment, 61 days, added to chow: 1.6 g/day cholesterol and/or 50 mg/day hydroperoxide material, listed as Cholesterol", "result": "extensive atheroma formation"}, {"measurement": "atherosclerotic lesions in aorta (Sudan IV)", "setting": "[2]; second feeding experiment, 56 days, added to chow: 1.6 g/day cholesterol and/or 50 mg/day test material", "result": "less than in the first experiment"}, {"measurement": "Final blood plasma Cholesterol", "setting": "[3]; first feeding experiment", "result": "446 ± 163", "unit": "mg/dL"}, {"measurement": "Final blood plasma Cholesterol Esters", "setting": "[3]; first feeding experiment", "result": "1507 ± 361", "unit": "mg/dL"}, {"measurement": "Final blood plasma Cholesterol", "setting": "[3]; second feeding experiment", "result": "828 ± 459", "unit": "mg/dL"}, {"measurement": "Final blood plasma Cholesterol Esters", "setting": "[3]; second feeding experiment", "result": "1520 ± 820", "unit": "mg/dL"}, {"measurement": "cholesterol and esters, HEART", "setting": "[4]", "result": "158 +/- 74 mg/100 g wet tissue"}, {"measurement": "cholesterol and esters, LIVER", "setting": "[4]", "result": "4960 +/- 1416 mg/100 g wet tissue"}, {"measurement": "cholesterol, HEART", "setting": "[4]", "result": "160 +/- 24 mg/100 g wet tissue"}, {"measurement": "cholesterol, LIVER", "setting": "[4]", "result": "1217 +/- 615 mg/100 g wet tissue"}]}, {"smiles": "CC(C)CCC[C@@H](C)[C@H]1CC[C@H]2[C@@H]3C(=O)C=C4C[C@@H](O)CC[C@]4(C)[C@H]3CC[C@]12C", "note": "[5-cholesten-3β-ol-7-one]", "values": [{"measurement": "effect in the phosphodiesterase assay", "setting": "Bovine brain calmodulin", "result": "without effect"}]}]}
